“And” between values parts separate entries of the source, which are not always exact repeats. Equal values may be shown once.
Legend:
[1] = biological target: T1, delta opioid receptor (Rattus norvegicus, UniProt P33533); test: Rat Brain Delta Opioid Receptor Binding Assay ([3H]DPDPE); conditions: rat forebrain membranes, margin of error 10-20%, read-out: r Ki δ
T1 construct: from tissue; host or cells: forebrain of male Wistar rats
In short: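 Rat (male Wistar) forebrain membranes in 50 mM Tris-HCl pH 7.4 with 5 mM MgCl2, incubated with ~4 nM [3H]DPDPE for 2.5 h at 25 °C. Bound ligand collected by filtration and scintillation counting. Single-concentration data given as % inhibition of specific binding; concentration series fitted to Ki.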

[2] = biological target: T2, mu opioid receptor (CHO-hMOR cell membranes) (Homo sapiens, UniProt P35372); test: Mu Opioid Receptor Functional Assay: [35S]GTPγS Binding in CHO-hMOR Cell Membranes, Versions 1 and 2; type: biochemical; conditions: for MOR GTP binding assay_v1 (% I): version 1, % inhibition of agonist-stimulated GTPγS binding; for MOR GTP assay_v1 % of Basal: version 1, basal binding = 100%; for MOR GTP binding assay_v2 (% I): version 2, % inhibition of agonist-stimulated GTPγS binding; for EC50: version 2, read-out: MOR GTP binding assay v2 EC50
T2 construct: purchased Receptor Biology, Inc. (Baltimore, Md.); host or cells: CHO cells (recombinant expression)
In short: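 Agonist-stimulated [35S]GTPγS (0.5 nM) binding measured by SPA in human MOR CHO membranes, buffer pH 7.6 with 100 mM NaCl, 5 mM MgCl2. Antagonist mode: % inhibition of stimulation by 1 μM SNC80; agonist mode: EC50 fitted. Basal binding without agonist, non-specific with 10 μM cold GTPγS.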

[3] = biological target: T3, human mu opioid receptor (Homo sapiens, UniProt P35372); test: Human Mu Opioid Receptor Binding Assay (CHO membranes, 3H-Damgo); conditions: read-out: hKi μ
T3 construct: purchased Perkin Elmer RBHOMM400UA; host or cells: Chinese Hamster Ovary cells (recombinant expression)
In short: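 Radioligand displacement of ³H-Damgo (diluted to 3.6 nM pre-mix) from recombinant human mu receptor in CHO membranes, 2 h, room temperature, 50 mM Tris pH 7.5 with 5 mM MgCl2. Bound label read by filtration and scintillation counting; 1 μM unlabelled Damgo defines nonspecific binding.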

T3 sequence (P35372 whole entry): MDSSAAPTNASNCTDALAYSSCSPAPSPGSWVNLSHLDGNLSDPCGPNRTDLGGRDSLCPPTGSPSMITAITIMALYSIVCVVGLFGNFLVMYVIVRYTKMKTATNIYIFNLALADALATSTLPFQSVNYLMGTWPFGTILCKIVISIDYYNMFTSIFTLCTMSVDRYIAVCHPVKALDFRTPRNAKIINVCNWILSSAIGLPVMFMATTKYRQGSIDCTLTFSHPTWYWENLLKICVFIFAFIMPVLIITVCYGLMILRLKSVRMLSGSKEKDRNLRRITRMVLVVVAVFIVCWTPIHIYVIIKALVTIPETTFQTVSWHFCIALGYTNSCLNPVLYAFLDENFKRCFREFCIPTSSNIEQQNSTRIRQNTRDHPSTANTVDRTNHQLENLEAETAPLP
T2 sequence (P35372 whole entry): as above
T1 sequence (P33533 whole entry): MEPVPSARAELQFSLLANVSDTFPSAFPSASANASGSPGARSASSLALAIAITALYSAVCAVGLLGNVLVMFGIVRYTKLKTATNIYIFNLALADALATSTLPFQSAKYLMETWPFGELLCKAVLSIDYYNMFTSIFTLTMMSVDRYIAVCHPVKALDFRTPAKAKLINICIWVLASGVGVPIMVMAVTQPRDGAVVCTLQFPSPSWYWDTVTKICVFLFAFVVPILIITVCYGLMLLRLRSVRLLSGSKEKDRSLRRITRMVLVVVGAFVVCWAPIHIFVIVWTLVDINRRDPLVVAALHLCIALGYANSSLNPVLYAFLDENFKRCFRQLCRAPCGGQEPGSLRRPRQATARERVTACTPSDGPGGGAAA

| Compound | Ki [1] | MOR GTP binding assay_v1 (% I) [2] | MOR GTP assay_v1 % of Basal [2] | Ki [3] | MOR GTP binding assay_v2 (% I) [2] | EC50 [2] |
| --- | --- | --- | --- | --- | --- | --- |
| CCN(C(=O)[C@@H](N)Cc1c(C)cc(O)cc1C)[C@H](C)c1nc(-c2ccccc2)c[nH]1 [Cpd 217] | 5.4 nM | 1.00% | 599.00% |  |  |  |
| Cc1cc(O)cc(C)c1C[C@H](N)C(=O)N(Cc1ccccc1)[C@@H](C)c1nc(-c2ccccc2)c[nH]1 [Cpd 218] | 1.45 nM | 1.00% | 599.00% | 3.92 nM |  |  |
| CCN(C(=O)[C@@H](N)Cc1ccc(O)cc1)[C@H](C)c1nc(-c2ccccc2)c[nH]1 [Cpd 214] | 308 nM | 3.00% | 295.00% | 29 nM |  |  |
| Cc1cc(C(N)=O)cc(C)c1C[C@H](N)C(=O)N(Cc1cccc(-c2nnn[nH]2)c1)[C@@H](C)c1nc(-c2ccccc2)c[nH]1 [Cpd 242] | 0.18 nM |  |  | 2.35 nM |  |  |
| C[C@H](c1nc(-c2ccccc2)c[nH]1)N(Cc1ccccc1)C(=O)[C@@H](N)Cc1ccc(O)cc1 [Cpd 221] | 9.58 nM | 13.00% | 427.00% | 0.42 nM |  |  |
| C[C@@H](c1nc(-c2ccccc2)c[nH]1)N(Cc1ccccc1)C(=O)[C@@H](N)Cc1ccc(O)cc1 [Cpd 219] | 87.8 nM | 1.00% | 611.00% | 16.2 nM |  |  |
| Cc1cc(C(N)=O)cc(C)c1C[C@H](N)C(=O)N(Cc1ccc(C(=O)O)o1)[C@@H](C)c1nc(-c2ccccc2)c[nH]1 [Cpd 256] | 3.82 nM |  |  | 2 nM | 29.40% | 13 nM |
| Cc1cc(O)cc(C)c1C[C@H](N)C(=O)N(Cc1nc(-c2ccccc2)c[nH]1)C(C)C [Cpd 194] | 14.8 nM | 1.00% | 558.00% | 0.13 nM |  |  |
| Cc1cc(O)cc(C)c1C[C@H](N)C(=O)N(Cc1ccnc2ccccc12)[C@@H](C)c1nc(-c2ccccc2)c[nH]1 [Cpd 246] | 0.035 nM |  |  | 5.63 nM | 21.30% | 4.5 nM |
| Cc1cc(O)cc(C)c1C[C@H](N)C(=O)N(C)Cc1nc(-c2ccccc2)c[nH]1 [Cpd 199] | 26.3 nM | 11.00% | 465.00% | 0.29 nM |  |  |
| Cc1cc(O)cc(C)c1C[C@H](N)C(=O)N(C)[C@@H](C)c1nc(Cc2ccccc2)c[nH]1 [Cpd 205] | 4.44 nM | 1.00% | 566.00% |  |  |  |
| COC(=O)c1ccc(CN(C(=O)[C@@H](N)Cc2c(C)cc(C(N)=O)cc2C)[C@@H](C)c2nc(-c3ccccc3)c[nH]2)o1 [Cpd 257] |  |  |  | 3.4 nM | 10.96% | 3.9 nM |
| Cc1cc(O)cc(C)c1C[C@H](N)C(=O)N(C)[C@@H](C)c1nc(-c2ccccc2)c[nH]1 [Cpd 207] | 5.3 nM and 5.37 nM and 14.7 nM |  |  |  |  |  |
| COc1ccc(CN(C(=O)[C@@H](N)Cc2ccc(O)cc2)[C@@H](C)c2nc(-c3ccccc3)c[nH]2)cc1C(=O)O [Cpd 261] | 8.01 nM |  |  | 2.58 nM and 1.3 nM | 5.88% | 17 nM |
| Cc1cc(O)cc(C)c1C[C@H](N)C(=O)N(Cc1nc(-c2cc(C(F)(F)F)cc(C(F)(F)F)c2)c(C)[nH]1)C(C)C [Cpd 164] | 120 nM | 1.00% |  | 16.3 nM |  |  |
| COc1ccc(CN(C(=O)[C@@H](N)Cc2c(C)cc(C(N)=O)cc2C)[C@@H](C)c2nc(-c3ccc(I)cc3)c[nH]2)cc1C(=O)O [Cpd 289] |  |  |  | 2.2 nM |  |  |
| Cc1ccccc1-c1nc(CN(C(=O)[C@@H](N)Cc2c(C)cc(O)cc2C)C(C)C)[nH]c1C [Cpd 165] | 23.6 nM | 1.00% |  | 0.45 nM |  |  |
| COC(=O)c1cc(CN(C(=O)[C@@H](N)Cc2c(C)cc(C(N)=O)cc2C)[C@@H](C)c2nc(-c3ccccc3)c[nH]2)ccc1OC [Cpd 17] | 60 nM |  |  | 2.2 nM | 8.71% | 2.5 nM |
| CCN(C(=O)[C@@H](N)Cc1c(C)cc(O)cc1C)[C@@H](C)c1nc(-c2ccccc2)c[nH]1 [Cpd 216] | 1.14 nM | 1.00% | 666.00% |  |  |  |
| Cc1cc(C(N)=O)cc(C)c1C[C@H](N)C(=O)N(Cc1ccc(C(=O)O)cc1)[C@@H](C)c1nc(-c2ccccc2)c[nH]1 [Cpd 50] | 0.58 nM |  |  | 1.4 nM |  |  |
